Reference: ChEMBL document CHEMBL1158620, “Synthesis and evaluation of novel alpha-amino cyclic boronates as inhibitors of HCV NS3 protease” (Bioorg Med Chem Lett, 2010)

Columns and labels:
[1] = tested on: Hepatitis C virus; assay: Inhibition of HCV 1a NS3/4A protease by FRET assay; assay type: functional, Hepatitis C virus subtype 1a; settings: for IC50: Hepatitis C virus
[2] = tested on: Hepatitis C virus; assay: Antiviral activity against HCV 1a by cell based replicon assay; assay type: functional, organism-based, Hepacivirus hominis; settings: subtype 1a
[3] = tested on: Hepatitis C virus; assay: Antiviral activity against HCV 1b by cell based replicon assay; assay type: functional, organism-based, Hepacivirus hominis; settings: genotype 1b

IC50 [1]	EC50 [2]	EC50 [3]	Structure (SMILES)	Ki [1]
1.93 µM	> 1 µM	> 1 µM	CC(C)(C)[C@@H](NC(=O)OC1CCCC1)C(=O)N1C[C@H](Oc2nccc3ccccc23)C[C@H]1C(=O)N[C@@H]1B(O)OC[C@@H]1C1CC1	
0.023 µM	> 1 µM	> 1 µM	CC(C)(C)[C@H](NC(=O)OC1CCCC1)C(=O)N1C[C@H](OC(=O)N2Cc3cccc(F)c3C2)C[C@H]1C(=O)N[C@H]1CCOB1O	
0.32 µM	> 1 µM	> 1 µM	CC(C)(C)[C@H](NC(=O)OC1CCCC1)C(=O)N1C[C@H](OC(=O)N2Cc3cccc(F)c3C2)C[C@H]1C(=O)NC1CCCOB1O (stereo not given in full)	
0.024 µM	> 1 µM	> 1 µM	CC(C)(C)[C@H](NC(=O)OC1CCCC1)C(=O)N1C[C@H](OC(=O)N2Cc3cccc(F)c3C2)C[C@H]1C(=O)NC1CCCCOB1O (stereo not given in full)	
0.12 µM	> 1 µM	> 1 µM	CC(C)(C)[C@@H](NC(=O)OC1CCCC1)C(=O)N1C[C@H](Oc2nccc3ccccc23)C[C@H]1C(=O)N[C@H]1CCOB1O	
2.75 µM	> 1 µM	> 1 µM	CC(C)(C)[C@@H](NC(=O)OC1CCCC1)C(=O)N1C[C@H](Oc2nccc3ccccc23)C[C@H]1C(=O)N[C@@H]1CCOB1O	
0.73 µM	> 1 µM	> 1 µM	CC(C)(C)[C@@H](NC(=O)OC1CCCC1)C(=O)N1C[C@H](Oc2nccc3ccccc23)C[C@H]1C(=O)NC1CCCOB1O (stereo not given in full)	

Continued, molecule first:

Structure (SMILES)	IC50 [1]	EC50 [2]	EC50 [3]	Ki [1]
CC(C)(C)[C@H](NC(=O)OC1CCCC1)C(=O)N1C[C@H](OC(=O)N2Cc3cccc(F)c3C2)C[C@H]1C(=O)N[C@@H]1CCOB1O	5.31 µM	> 1 µM	> 1 µM	
CC[C@H]1COB(O)[C@H]1NC(=O)[C@@H]1C[C@@H](OC(=O)N2Cc3cccc(F)c3C2)CN1C(=O)[C@@H](NC(=O)OC1CCCC1)C(C)(C)C	0.33 µM	> 1 µM	> 1 µM	
CC(C)(C)[C@H](NC(=O)OC1CCCC1)C(=O)N1C[C@H](OC(=O)N2Cc3cccc(F)c3C2)C[C@H]1C(=O)N[C@@H]1B(O)OC[C@@H]1C1CC1	0.2 µM	> 1 µM	> 1 µM	
C[C@H]1C[C@H](NC(=O)[C@@H]2C[C@@H](OC(=O)N3Cc4cccc(F)c4C3)CN2C(=O)[C@@H](NC(=O)OC2CCCC2)C(C)(C)C)B(O)O1	0.34 µM	> 1 µM	> 1 µM	
C[C@H]1[C@H](C)OB(O)[C@H]1NC(=O)[C@@H]1C[C@@H](OC(=O)N2Cc3cccc(F)c3C2)CN1C(=O)[C@@H](NC(=O)OC1CCCC1)C(C)(C)C	4.47 µM	> 1 µM	> 1 µM	
CC(C)(C)[C@H](NC(=O)OC1CCCC1)C(=O)N1C[C@H](OC(=O)N2Cc3cccc(F)c3C2)C[C@H]1C(=O)N[C@H]1COB(O)C1	8.5 µM	> 1 µM	> 1 µM	
CC(C)(C)[C@@H](NC(=O)OC1CCCC1)C(=O)N1C[C@H](Oc2nccc3ccccc23)C[C@H]1C(=O)NC1CCCCOB1O (stereo not given in full)	0.17 µM	> 1 µM	> 1 µM	
CC(C)(C)[C@H](NC(=O)[C@@H](NC(=O)c1cnccn1)C1CCCCC1)C(=O)N1C[C@@H]2CCC[C@@H]2[C@H]1C(=O)N[C@H]1CCOB1O	0.12 µM	> 1 µM	> 1 µM	
CC(C)(C)NC(=O)N[C@H](C(=O)N1C[C@H]2[C@@H]([C@H]1C(=O)N[C@H]1CCOB1O)C2(C)C)C(C)(C)C	0.34 µM	> 1 µM	> 1 µM	
CCC[C@H](NC(=O)[C@@H]1[C@H]2CCC[C@H]2CN1C(=O)[C@@H](NC(=O)[C@@H](NC(=O)c1cnccn1)C1CCCCC1)C(C)(C)C)C(=O)C(=O)NC1CC1	0.1 µM			0.044 µM
